From patent US8557798 come the findings set out here.

For this data set the following is noted: from COC(=O)c1cccc(CN2C(=O)NC(C)(c3cccc(CCCN)c3)C2=O)c1; amide bond; sodium methoxide; MeOH; 7.5 mM; 85.0 °C; 96.0 h.

`CC12NC(=O)N(Cc3cccc(c3)C(=O)NCCCc3cccc1c3)C2=O` (stereo not shown) came in with a ring closure, yield of all isomers of 48%.
